From US7247646B2, “Benzopyranone compounds, compositions thereof, and methods of treatment therewith” (Signal Pharmaceuticals, LLC, priority 2003, dated 2007) come the findings set out here.

Values joined by “and” are separate entries in the source; they are usually repeats but may differ in a detail not shown here. Identical values can stand only once.

What all share (assay type): cell-based
The target of one test is T1, human ER-β (Homo sapiens, UniProt Q92731).
T1 construct: stably transfected with expression vectors for human full-length ER-α or ER-β; expressed in transfected cells
Briefly: Inhibition of IL-6 release from U-2 OS osteosarcoma cells stably transfected with human ER-β. To be noted: IL-6 production (ELISA) after 2.5 ng/ml TNFα and 1 ng/ml IL-1β stimulation, 24 h; compound 0.01–1000 nM; vehicle = 100%; read-out: IC50 (nM) U2 OS (ER-β). How it is done: (§1) Illustrative Benzopyranone Compounds were tested for their ability to inhibit IL-6 release from human U-2 OS osteosarcoma cells stably transfected with human ER-α or ER-β. (Stein, B.; Yang, M. X. Mol. Cell. Biol 15: 4971–4979, 1995; Poli, V. et. al., EMBO J. 13:1189–1196, 1994). […] Benzopyranone Compounds having an IC50<100 nM are particularly useful as bone resorption inhibitors in vivo. Accordingly, the Benzopyranone Compounds, are particularly useful for the treatment of osteoporosis, Paget's disease and metastatic bone cancer. These Benzopyranone Compounds are also useful as anti-cancer agents, since elevated IL-6 levels are responsible for certain cancers such as multiple myeloma, prostate cancer, ovarian cancer, renal carcinoma and cervical carcinoma.
(§2) Human U-2 OS osteosarcoma cells (ATCC) were stably transfected with expression vectors for human full-length ER-α or ER-β using standard molecular biology techniques. Stable subclones were generated that expressed high levels of ER-α or ER-β mRNA. The expression of ER-α or ER-β was confirmed using RNase protection analysis.
(§3) Cells were plated into 96-well plates at a density of 80,000 cells per well in phenol red-free media with charcoal-stripped fetal calf serum. Twenty four hours later, cells were either treated with vehicle (0.2% DMSO) or a Benzopyranone Compound (0.01–1000 nm in 0.2% DMSO). Thirty minutes later cells were stimulated with 2.5 ng/ml TNFα and 1 ng/ml IL-1β. Twenty-four hours later the media supernatant was analyzed for cytokine production (IL-6) using commercially available ELISA kits following the manufacturer's instructions. Cytokine production in the presence of vehicle (0.2% DMSO) was set to 100%.
(§4) The results (Table 2) are expressed as an IC50 (nM) value which is the concentration of the Benzopyranone Compound sufficient to inhibit the production of IL-6 50% relative to the amount of IL-6 produced in the presence of vehicle.

The next test concerns the target T2, human ER-α (Homo sapiens, UniProt P03372).
T2 construct: stably transfected with expression vectors for human full-length ER-α or ER-β; expressed in transfected cells
T2 sequence (P03372 1-595): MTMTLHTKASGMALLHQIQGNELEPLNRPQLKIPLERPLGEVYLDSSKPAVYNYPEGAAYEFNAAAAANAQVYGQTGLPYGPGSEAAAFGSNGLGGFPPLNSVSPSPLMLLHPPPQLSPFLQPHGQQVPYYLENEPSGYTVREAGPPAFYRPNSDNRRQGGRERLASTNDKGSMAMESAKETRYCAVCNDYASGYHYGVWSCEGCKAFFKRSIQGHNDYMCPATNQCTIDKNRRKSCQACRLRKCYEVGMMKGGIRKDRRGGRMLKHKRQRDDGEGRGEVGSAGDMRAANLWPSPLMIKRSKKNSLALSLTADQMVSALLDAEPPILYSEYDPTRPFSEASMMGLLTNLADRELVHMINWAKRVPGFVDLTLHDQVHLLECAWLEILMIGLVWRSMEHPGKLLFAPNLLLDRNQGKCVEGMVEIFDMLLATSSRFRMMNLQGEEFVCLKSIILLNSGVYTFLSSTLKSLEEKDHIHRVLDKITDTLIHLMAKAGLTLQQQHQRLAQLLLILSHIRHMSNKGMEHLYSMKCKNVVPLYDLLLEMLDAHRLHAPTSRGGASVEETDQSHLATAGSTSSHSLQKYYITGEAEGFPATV
Briefly: Inhibition of IL-6 release from U-2 OS osteosarcoma cells stably transfected with human ER-α. To be noted: IL-6 production (ELISA) after 2.5 ng/ml TNFα and 1 ng/ml IL-1β stimulation, 24 h; compound 0.01–1000 nM; vehicle = 100%; read-out: IC50 (nM) U2 OS (ER-α). The method, then: as §1, §2, §3, §4

The test system of test [1] is MCF-7 breast cancer cells. Briefly: Inhibition of 17β-estradiol-dependent MCF-7 breast cancer cell proliferation (3H-thymidine incorporation). The note with it: Homo sapiens, MCF7; with 0.1 nM 17β-estradiol, 72 h, then 3H-thymidine 4 h; compound 0.1–1000 nM. How it is done: MCF-7 cells represent an excellent in vitro system to study the effects of compounds on estrogen-dependent breast cancer growth. (May, F. E. B.; Westley, B. R. J. Biol. Chem. 262:15894–15899, 1987). Benzopyranone Compounds having an IC50<100 nM are particularly useful as anti-breast cancer agents in vivo.
MCF-7 breast carcinoma cells were plated in 24-well dishes at a density of 5×10^3 cells/well in phenol-red free DMEM:F-12 (1:1) medium containing 1% antibiotics, 0.05% mercaptoethanol, 0.01% ethanolamine, 0.42 ng/mL sodium selenite and 5% charcoal-stripped FCS.
Illustrative Benzopyranone Compounds (0.1–1000 nM in 0.2% DMSO) and 0.1 nM 17β-estradiol were added to the cultured MCF-7 breast cancer cells for 72 h. Subsequently, ^3H-labeled thymidine was added and its incorporation into cells was measured following 4 h incubation. The results (Table 2) are expressed as an IC50 (nM) value which is the concentration of the Benzopyranone Compound sufficient to inhibit the growth of MCF-7 breast cancer cells by 50% relative to controls.

T1 sequence (Q92731 whole entry): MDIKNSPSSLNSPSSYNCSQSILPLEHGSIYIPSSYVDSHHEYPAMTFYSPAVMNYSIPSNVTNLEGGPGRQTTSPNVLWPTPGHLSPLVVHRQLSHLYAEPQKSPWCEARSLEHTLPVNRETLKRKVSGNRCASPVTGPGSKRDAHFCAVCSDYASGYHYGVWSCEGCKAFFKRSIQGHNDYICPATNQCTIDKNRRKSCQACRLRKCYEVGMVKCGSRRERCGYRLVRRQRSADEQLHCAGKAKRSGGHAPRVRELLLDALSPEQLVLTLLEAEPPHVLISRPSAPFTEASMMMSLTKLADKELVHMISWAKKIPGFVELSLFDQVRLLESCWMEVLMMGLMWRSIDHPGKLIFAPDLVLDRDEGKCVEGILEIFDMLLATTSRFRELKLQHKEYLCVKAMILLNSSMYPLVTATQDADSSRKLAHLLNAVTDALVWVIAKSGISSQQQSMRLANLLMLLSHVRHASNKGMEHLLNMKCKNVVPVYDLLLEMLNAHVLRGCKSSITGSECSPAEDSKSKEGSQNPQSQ

On to `Cc1cc2c(Cc3ccc(OCCN4CCCC4)cc3)c(-c3ccc(C(F)(F)F)cc3)c(=O)oc2cc1O`, for which the values for the IC50 (on human ER-β; at human ER-α; in test [1]) were > 1000 nM, 13.3 nM and 59.5 nM, respectively.

With `CC(=O)c1cc2c(Cc3ccc(OCCN4CCCC4)cc3)c(-c3ccc(C(F)(F)F)cc3)c(=O)oc2cc1O`, the IC50 on human ER-β is > 1000 nM; on human ER-α it was 850 nM and > 1000 nM; in test [1], > 1000 nM.

On to `CC(O)c1cc2c(Cc3ccc(OCCN4CCCC4)cc3)c(-c3ccc(C(F)(F)F)cc3)c(=O)oc2cc1O` (stereo not shown), for which the IC50 at human ER-β is > 1000 nM; on human ER-α, 850 nM and > 1000 nM.

On to `O=c1oc2cc(O)c(Br)cc2c(Cc2ccc(OCCN3CCCC3)cc2)c1-c1ccc(C(F)(F)F)cc1`, for which the IC50 on human ER-β was > 1000 nM; on human ER-α it was 310 nM and > 1000 nM; in test [1] it was > 1000 nM.

In the case of `Cc1cc2c(Cc3ccc(OCCN4CCCC4)cc3)c(-c3ccc(Cl)cc3Cl)c(=O)oc2cc1O`, the IC50 on human ER-β is > 1000 nM; on human ER-α, 1.7 nM; in test [1], 10 nM.

Consider `Cc1c(O)ccc2c(Cc3ccc(OCCN4CCCC4)cc3)c(-c3ccc(C(F)(F)F)cc3)c(=O)oc12`, for which the values for the IC50 (on human ER-β; on human ER-α; in test [1]) were < 1000 nM, 55.5 nM and 235 nM, respectively.

As to `Cc1c(O)ccc2c(Cc3ccc(OCCN4CCCC4)cc3)c(-c3ccc(Cl)cc3Cl)c(=O)oc12`, the IC50 was < 1000 nM at human ER-β, 6.9 nM on human ER-α and 35 nM in test [1].

Take `CC(=O)c1c(O)ccc2c(Cc3ccc(OCCN4CCCC4)cc3)c(-c3ccc(C(F)(F)F)cc3)c(=O)oc12`: the results for the IC50 (at human ER-β; at human ER-α; in test [1]) were < 1000 nM, 39 nM and 185 nM, respectively.

As to `CC(=O)c1c(O)ccc2c(Cc3ccc(OCCN4CCCC4)cc3)c(-c3ccc(Cl)cc3Cl)c(=O)oc12`, the figures for the IC50 (at human ER-β; at human ER-α; in test [1]) were < 1000 nM, 5 nM and 112 nM, respectively.

With `Cc1c(O)ccc2c(Cc3ccc(OCCN4CCCC4)cc3)c(-c3ccc(Cl)cc3)c(=O)oc12`, the figures for the IC50 (on human ER-β; on human ER-α; in test [1]) were < 1000 nM, 285 nM and < 1000 nM, respectively.

For the compound `N#Cc1c(O)ccc2c(Cc3ccc(OCCN4CCCC4)cc3)c(-c3ccc(C(F)(F)F)cc3)c(=O)oc12`, the IC50 at human ER-β was > 1000 nM; on human ER-α it was 390 nM.
